Experimental findings from US9695155B2, “Herbicidal substituted pyrimidinyloxy benzene compounds” (E. I. DU PONT DE NEMOURS AND COMPANY, priority 2013, dated 2017) are described below.

Assay [1] deals with barnyardgrass. The assay can be described thus: Test A preemergence. The class given is in vivo, Echinochloa crus-galli. Particulars: 1000 g ai/ha, 0 to 100 scale, 0 no effect, 100 complete control, approx. 10 days. Summed up:
(§1)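 Injury scores run from 0, no effect, to 100, complete control, judged by eye against untreated plants roughly 10 days after treatment. Chemicals carried a surfactant in a non-phytotoxic solvent and went onto loam–sand soil preemergence or onto one- to two-leaf seedlings postemergence.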

The subject of assay [2] is kochia. The assay is described as follows: Test A preemergence. Particulars: 1000 g ai/ha, 0 to 100 scale, 0 no effect, 100 complete control, approx. 10 days. The class given is in vivo, Kochia scoparia. An excerpt:
(§2) Seeds of plant species selected from barnyardgrass (Echinochloa crus-galli), kochia (Kochia scoparia), ragweed (common ragweed, Ambrosia elatior), Italian ryegrass (Lolium multiflorum), large (Lg) crabgrass (Digitaria sanguinalis), giant foxtail (Setaria faberii), morningglory (Ipomoea spp.), pigweed (Amaranthus retroflexus), velvetleaf (Abutilon theophrasti), wheat (Triticum aestivum), and corn (Zea mays) were planted into a blend of loam soil and sand and treated preemergence with a directed soil spray using test chemicals formulated in a non-phytotoxic solvent mixture which included a surfactant.
(§3) At the same time, plants selected from these crop and weed species and also blackgrass (Alopecurus myosuroides), and galium (catchweed bedstraw, Galium aparine) were planted in pots containing the same blend of loam soil and sand and treated with postemergence applications of test chemicals formulated in the same manner. Plants ranged in height from 2 to 10 cm and were in the one- to two-leaf stage for the postemergence treatment. Treated plants and untreated controls were maintained in a greenhouse for approximately 10 days, after which time all treated plants were compared to untreated controls and visually evaluated for injury. Plant response ratings, summarized in Table A, are based on a 0 to 100 scale where 0 is no effect and 100 is complete control. A dash (-) response means no test result.

Assay [3] has as its system ragweed. The assay is described as follows: Test A preemergence. The class given is in vivo, Ambrosia elatior. Particulars: 1000 g ai/ha, 0 to 100 scale, 0 no effect, 100 complete control, approx. 10 days.
Text: as §2, §3

Assay [4] has as its system Italian ryegrass. The assay is described as follows: Test A preemergence. The assay is classed as in vivo, Lolium multiflorum. Particulars: 1000 g ai/ha, 0 to 100 scale, 0 no effect, 100 complete control, approx. 10 days.
Text: as §2, §3

The subject of assay [5] is giant foxtail. The assay is described as follows: Test A preemergence. The class given is in vivo, Setaria faberii. Particulars: 1000 g ai/ha, 0 to 100 scale, 0 no effect, 100 complete control, approx. 10 days. Summed up: as §1
For assay [6], the system named is pigweed. The assay is described as follows: Test A preemergence. The assay is classed as in vivo, Amaranthus retroflexus. Particulars: 1000 g ai/ha, 0 to 100 scale, 0 no effect, 100 complete control, approx. 10 days. In short, it runs like this: as §1
The test system of assay [7] is barnyardgrass. The assay can be described thus: Test A postemergence. Particulars: 1000 g ai/ha, 0 to 100 scale, 0 no effect, 100 complete control. The class given is in vivo, Echinochloa crus-galli. In short, it runs like this:
as §1

Assay [8] concerns kochia. The assay can be described thus: Test A postemergence. Particulars: 1000 g ai/ha, 0 to 100 scale, 0 no effect, 100 complete control. The assay is classed as in vivo, Kochia scoparia.
Text: as §2, §3

The subject of assay [9] is ragweed. The assay can be described thus: Test A postemergence. The class given is in vivo, Ambrosia elatior. Particulars: 1000 g ai/ha, 0 to 100 scale, 0 no effect, 100 complete control.
Text: as §2, §3

Assay [10] relates to Italian ryegrass. The assay is described as follows: Test A postemergence. The assay is classed as in vivo, Lolium multiflorum. Particulars: 1000 g ai/ha, 0 to 100 scale, 0 no effect, 100 complete control.
Text: as §2, §3

The subject of assay [11] is giant foxtail. The assay can be described thus: Test A postemergence. The assay is classed as in vivo, Setaria faberii. Particulars: 1000 g ai/ha, 0 to 100 scale, 0 no effect, 100 complete control. In short, it runs like this: as §1
In assay [12] the test system is pigweed. The assay can be described thus: Test A postemergence. Particulars: 1000 g ai/ha, 0 to 100 scale, 0 no effect, 100 complete control. The class given is in vivo, Amaranthus retroflexus. Summed up: as §1
The next assay concerns wheat. The assay is described as follows: Test A postemergence. The assay is classed as in vivo, Triticum aestivum. Particulars: 1000 g ai/ha, 0 to 100 scale, 0 no effect, 100 complete control. In short, it runs like this:
as §1

The next assay relates to corn. The assay can be described thus: Test A postemergence. The assay is classed as in vivo, Zea mays. Particulars: 1000 g ai/ha, 0 to 100 scale, 0 no effect, 100 complete control. In short, it runs like this: as §1
For another assay, the system named is blackgrass. The assay is described as follows: Test A postemergence. The class given is in vivo, Alopecurus myosuroides. Particulars: 1000 g ai/ha, 0 to 100 scale, 0 no effect, 100 complete control.
Text: as §2, §3

The subject of another assay is galium. The assay is described as follows: Test A postemergence. Particulars: 1000 g ai/ha, 0 to 100 scale, 0 no effect, 100 complete control. The class given is in vivo, Galium aparine.
Text: as §2, §3

Take `CNC(=O)c1cccc(Oc2ncc(Cl)cn2)c1-n1cc(C(F)(F)F)cn1` [Compound 256]: the “Barnyardgrass plant response rating” value with barnyardgrass [1] is recorded as 20. Further, the “Kochia plant response rating” value in the assay on kochia [2] amounted to 70. Moreover, in the assay with ragweed [3], the “Ragweed plant response rating” value stood at 30. The “Ryegrass, Italian plant response rating” value in the assay with Italian ryegrass [4] was found to be 20. For the same compound, the “Foxtail, Giant plant response rating” value with giant foxtail [5] turned out to be 30. In addition, in the assay with pigweed [6], the “Pigweed plant response rating” value stood at 30. Besides, the “Plant response rating, Barnyardgrass” value in the assay with barnyardgrass [7] stood at 10. Moreover, in the assay with kochia [8], the “Plant response rating, Kochia” value is on record as 30. For the same compound, the “Plant response rating, Ragweed” value with ragweed [9] came out at 10. Moreover, the “Plant response rating, Ryegrass, Italian” value with Italian ryegrass [10] is on record as 0. The “Plant response rating, Foxtail, Giant” value with giant foxtail [11] amounted to 10. In the assay on pigweed [12], the “Plant response rating, Pigweed” value was 10. In addition, the “Plant response rating, Wheat” value in the assay with wheat is 0. In the assay with corn, the “Plant response rating, Corn” value is on record as 0. The “Plant response rating, Blackgrass” value in the assay on blackgrass was 10. Also, in the assay on galium, the “Plant response rating, Galium” value turned out to be 30.
Regarding `CC(C)(C)NS(=O)(=O)c1cnn(-c2ccccc2Oc2ncc(Cl)cn2)c1` [Compound 283], the “Barnyardgrass plant response rating” value with barnyardgrass [1] was 0. Besides, in the assay on kochia [2], the “Kochia plant response rating” value was determined as 0. In the assay on ragweed [3], the “Ragweed plant response rating” value is on record as 0. Moreover, the “Ryegrass, Italian plant response rating” value in the assay with Italian ryegrass [4] is recorded as 0. For the same compound, the “Foxtail, Giant plant response rating” value in the assay with giant foxtail [5] is given as 0. For the same compound, in the assay on pigweed [6], the “Pigweed plant response rating” value stood at 0. The “Plant response rating, Barnyardgrass” value in the assay with barnyardgrass [7] came out at 0. For the same compound, in the assay with kochia [8], the “Plant response rating, Kochia” value was 10. In addition, the “Plant response rating, Ragweed” value in the assay with ragweed [9] came out at 20. In the assay on Italian ryegrass [10], the “Plant response rating, Ryegrass, Italian” value was found to be 0. Also, the “Plant response rating, Foxtail, Giant” value with giant foxtail [11] was found to be 0. In addition, the “Plant response rating, Pigweed” value in the assay on pigweed [12] turned out to be 20. For the same compound, the “Plant response rating, Wheat” value in the assay with wheat was 0. The “Plant response rating, Corn” value with corn is 0. The “Plant response rating, Blackgrass” value in the assay on blackgrass was determined as 10. For the same compound, the “Plant response rating, Galium” value with galium stood at 30.
For the compound `C[Si](C)(C)c1cn(-c2c(Br)cccc2Oc2ncc(Cl)cn2)nn1` [Compound 300], the “Barnyardgrass plant response rating” value in the assay on barnyardgrass [1] is 20. The “Kochia plant response rating” value in the assay on kochia [2] turned out to be 60. For the same compound, the “Ragweed plant response rating” value in the assay on ragweed [3] stood at 0. Besides, the “Ryegrass, Italian plant response rating” value with Italian ryegrass [4] amounted to 20. The “Foxtail, Giant plant response rating” value in the assay with giant foxtail [5] amounted to 80. For the same compound, in the assay with pigweed [6], the “Pigweed plant response rating” value amounted to 100. In the assay with barnyardgrass [7], the “Plant response rating, Barnyardgrass” value stood at 0. For the same compound, in the assay with kochia [8], the “Plant response rating, Kochia” value turned out to be 20. Besides, the “Plant response rating, Ragweed” value with ragweed [9] turned out to be 0. The “Plant response rating, Ryegrass, Italian” value in the assay with Italian ryegrass [10] was found to be 0. For the same compound, in the assay with giant foxtail [11], the “Plant response rating, Foxtail, Giant” value came out at 30. Besides, the “Plant response rating, Pigweed” value in the assay with pigweed [12] was 60. Moreover, the “Plant response rating, Wheat” value with wheat is listed as 0. Further, the “Plant response rating, Corn” value in the assay with corn came to 10. Also, the “Plant response rating, Blackgrass” value with blackgrass is reported as 0. For the same compound, the “Plant response rating, Galium” value in the assay on galium is given as 40.
As for `CCOC(=O)c1cn(-c2ccccc2Oc2ncc(Cl)cn2)nn1` [Compound 302], the “Barnyardgrass plant response rating” value with barnyardgrass [1] came out at 0. In addition, the “Kochia plant response rating” value in the assay on kochia [2] was determined as 0. Besides, in the assay on ragweed [3], the “Ragweed plant response rating” value is recorded as 0. In addition, the “Ryegrass, Italian plant response rating” value with Italian ryegrass [4] turned out to be 0. Moreover, the “Foxtail, Giant plant response rating” value with giant foxtail [5] turned out to be 0. The “Pigweed plant response rating” value in the assay on pigweed [6] stood at 0. Besides, in the assay with barnyardgrass [7], the “Plant response rating, Barnyardgrass” value was 0. Further, the “Plant response rating, Kochia” value with kochia [8] amounted to 0. Also, the “Plant response rating, Ragweed” value with ragweed [9] is on record as 0. In the assay on Italian ryegrass [10], the “Plant response rating, Ryegrass, Italian” value was 0. For the same compound, the “Plant response rating, Foxtail, Giant” value in the assay with giant foxtail [11] was 0. In addition, the “Plant response rating, Pigweed” value with pigweed [12] amounted to 0. In the assay on wheat, the “Plant response rating, Wheat” value is reported as 0. For the same compound, the “Plant response rating, Corn” value with corn stood at 0. Moreover, the “Plant response rating, Blackgrass” value in the assay with blackgrass was determined as 0. The “Plant response rating, Galium” value in the assay with galium amounted to 0.
